Where no end group is shown, it is not given here.
Target: T1, rabbit lung angiotensin converting enzyme (Oryctolagus cuniculus, UniProt P12822)
T1 construct: rabbit lung angiotensin converting enzyme (Sigma Chemical Company, St. Louis, Mo.); purchased Sigma Chemical Company, St. Louis, Mo; host or cells: rabbit lung (tissue-derived enzyme)
T1 sequence (P12822 34-1310): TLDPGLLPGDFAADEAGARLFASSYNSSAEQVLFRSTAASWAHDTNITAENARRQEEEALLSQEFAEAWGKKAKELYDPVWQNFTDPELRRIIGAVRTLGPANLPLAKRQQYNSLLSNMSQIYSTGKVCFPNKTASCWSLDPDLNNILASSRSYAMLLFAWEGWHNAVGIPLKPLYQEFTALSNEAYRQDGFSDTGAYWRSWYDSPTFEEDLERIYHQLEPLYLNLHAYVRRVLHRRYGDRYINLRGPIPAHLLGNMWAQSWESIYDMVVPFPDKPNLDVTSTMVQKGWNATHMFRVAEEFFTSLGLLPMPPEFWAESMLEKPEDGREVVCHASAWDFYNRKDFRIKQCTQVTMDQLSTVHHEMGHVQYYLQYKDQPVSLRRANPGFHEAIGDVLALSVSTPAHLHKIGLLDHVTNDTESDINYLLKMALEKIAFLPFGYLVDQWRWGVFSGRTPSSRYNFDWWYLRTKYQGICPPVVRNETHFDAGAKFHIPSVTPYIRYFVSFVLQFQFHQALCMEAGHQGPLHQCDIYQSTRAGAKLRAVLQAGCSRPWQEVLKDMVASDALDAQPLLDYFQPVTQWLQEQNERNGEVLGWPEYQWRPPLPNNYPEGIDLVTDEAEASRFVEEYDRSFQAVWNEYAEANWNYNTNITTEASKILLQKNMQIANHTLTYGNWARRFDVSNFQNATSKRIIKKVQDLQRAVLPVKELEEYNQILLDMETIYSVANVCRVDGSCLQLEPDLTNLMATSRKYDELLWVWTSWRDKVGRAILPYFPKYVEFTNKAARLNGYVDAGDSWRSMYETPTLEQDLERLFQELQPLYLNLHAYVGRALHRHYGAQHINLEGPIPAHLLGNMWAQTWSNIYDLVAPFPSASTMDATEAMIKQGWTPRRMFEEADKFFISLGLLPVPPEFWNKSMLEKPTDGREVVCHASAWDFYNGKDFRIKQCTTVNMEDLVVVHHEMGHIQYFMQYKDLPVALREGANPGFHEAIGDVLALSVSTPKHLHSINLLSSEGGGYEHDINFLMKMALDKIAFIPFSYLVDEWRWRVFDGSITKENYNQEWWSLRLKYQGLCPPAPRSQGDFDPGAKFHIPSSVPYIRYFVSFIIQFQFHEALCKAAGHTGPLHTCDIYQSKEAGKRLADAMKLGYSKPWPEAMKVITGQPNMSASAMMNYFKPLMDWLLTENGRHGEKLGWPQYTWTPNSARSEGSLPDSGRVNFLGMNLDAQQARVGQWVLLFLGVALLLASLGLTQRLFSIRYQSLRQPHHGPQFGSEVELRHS
Assay: ACE inhibitory activity, FAPGG substrate
Format: biochemical
Conditions: synthetic peptides, 37° C., 30 minutes, read-out: ACE Inhibition (IC50)
Description: Angiotensin-I-converting enzyme inhibitory activity was determined using FAPGG as the substrate. A mixture containing 100 μl of 1 mM FAPGG, 20 μl of the soy peptide solution, and 80 μl of reaction solution (100 mM Tris-HCl, pH 8.3, containing 0.3 M NaCl, 10 mM ZnCl2, and 0.025 U/ml rabbit lung angiotensin converting enzyme (Sigma Chemical Company, St. Louis, Mo.)) was added to a 96-well plate. The reaction was carried out at 37° C. for 30 minutes and the absorbance of the mixture was read using a spectrophotometry set at 340 nm to determine the enzyme activity. 20 μl of distilled water was used in the place of the soy peptide solution in each assay as a negative control. The inhibitory potency (IC50) of each fraction of the soy peptides was determined from plots of percentage inhibition vs. log 10[soy peptide] (mg/L). IC50 value of Angiotensin-I-converting enzyme, defined as the amount of soy peptide that produced a 50% inhibition of ACE activity, was determined for selected fractions. Captopril was used as the positive control.

Substance | IC50
IPRPRPRP [IP-8, IPRPRPRP] | 7.2 ± 1.7 µM
LKPDNR [LR-6, LKPDNR] | 121 ± 1.7 µM
PIPFP [PP-5, PIPFP] | 66 ± 15.3 µM
PVNKP [PP-5-1, PVNKP] | 46.1 ± 5.2 µM

From patent US20100009922A1, “HYPOTENSIVE PEPTIDES FROM SOY PROTEINS AND METHOD OF PREPARATION” (priority 2008, published 2010)
